Measurements published in patent EP3623369A1, “NOVEL MORPHOLINYL AMINE COMPOUNDS FOR THE TREATMENT OF AUTOIMMUNE DISEASE” (F. Hoffmann-La Roche AG, priority 2018, dated 2020).

What was measured:
hTLR7 = target: T1, hTLR7 (Homo sapiens, UniProt Q9NYK1); set-up: host or cells: HEK; details: data disclosed in US20150105370; read-out: HEK/hTLR7 IC50; cited from earlier work
T1 sequence (Q9NYK1 27-1049): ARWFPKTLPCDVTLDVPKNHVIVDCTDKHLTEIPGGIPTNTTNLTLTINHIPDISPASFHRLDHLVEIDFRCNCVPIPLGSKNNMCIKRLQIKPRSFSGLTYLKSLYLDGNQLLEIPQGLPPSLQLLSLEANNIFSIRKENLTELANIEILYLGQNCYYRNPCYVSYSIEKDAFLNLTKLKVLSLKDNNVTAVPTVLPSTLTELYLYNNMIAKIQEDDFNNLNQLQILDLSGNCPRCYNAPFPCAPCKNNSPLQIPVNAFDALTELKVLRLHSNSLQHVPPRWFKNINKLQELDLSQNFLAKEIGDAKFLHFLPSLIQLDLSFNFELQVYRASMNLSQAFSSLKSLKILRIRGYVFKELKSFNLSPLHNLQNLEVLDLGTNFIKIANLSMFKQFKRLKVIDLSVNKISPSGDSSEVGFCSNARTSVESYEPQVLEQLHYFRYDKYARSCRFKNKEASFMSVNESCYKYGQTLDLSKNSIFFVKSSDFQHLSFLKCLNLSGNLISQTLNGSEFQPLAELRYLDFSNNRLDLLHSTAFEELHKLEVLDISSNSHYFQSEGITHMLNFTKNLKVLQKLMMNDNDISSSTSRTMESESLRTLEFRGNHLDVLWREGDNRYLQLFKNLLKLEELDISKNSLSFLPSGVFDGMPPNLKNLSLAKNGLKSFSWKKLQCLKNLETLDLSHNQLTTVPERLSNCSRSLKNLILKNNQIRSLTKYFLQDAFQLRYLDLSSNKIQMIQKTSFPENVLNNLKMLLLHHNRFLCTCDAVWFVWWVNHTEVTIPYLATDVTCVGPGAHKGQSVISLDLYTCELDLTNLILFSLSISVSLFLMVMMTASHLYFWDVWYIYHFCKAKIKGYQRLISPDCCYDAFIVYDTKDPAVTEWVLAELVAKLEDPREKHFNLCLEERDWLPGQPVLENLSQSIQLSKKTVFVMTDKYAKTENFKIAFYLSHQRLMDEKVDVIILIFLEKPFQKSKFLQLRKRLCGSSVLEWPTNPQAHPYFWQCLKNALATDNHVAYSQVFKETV

hTLR9 = target: T2, hTLR9 (Homo sapiens, UniProt Q9NR96); set-up: host or cells: HEK; details: data disclosed in US20150105370; read-out: HEK/hTLR9 IC50; cited from earlier work
T2 sequence (Q9NR96 26-1032): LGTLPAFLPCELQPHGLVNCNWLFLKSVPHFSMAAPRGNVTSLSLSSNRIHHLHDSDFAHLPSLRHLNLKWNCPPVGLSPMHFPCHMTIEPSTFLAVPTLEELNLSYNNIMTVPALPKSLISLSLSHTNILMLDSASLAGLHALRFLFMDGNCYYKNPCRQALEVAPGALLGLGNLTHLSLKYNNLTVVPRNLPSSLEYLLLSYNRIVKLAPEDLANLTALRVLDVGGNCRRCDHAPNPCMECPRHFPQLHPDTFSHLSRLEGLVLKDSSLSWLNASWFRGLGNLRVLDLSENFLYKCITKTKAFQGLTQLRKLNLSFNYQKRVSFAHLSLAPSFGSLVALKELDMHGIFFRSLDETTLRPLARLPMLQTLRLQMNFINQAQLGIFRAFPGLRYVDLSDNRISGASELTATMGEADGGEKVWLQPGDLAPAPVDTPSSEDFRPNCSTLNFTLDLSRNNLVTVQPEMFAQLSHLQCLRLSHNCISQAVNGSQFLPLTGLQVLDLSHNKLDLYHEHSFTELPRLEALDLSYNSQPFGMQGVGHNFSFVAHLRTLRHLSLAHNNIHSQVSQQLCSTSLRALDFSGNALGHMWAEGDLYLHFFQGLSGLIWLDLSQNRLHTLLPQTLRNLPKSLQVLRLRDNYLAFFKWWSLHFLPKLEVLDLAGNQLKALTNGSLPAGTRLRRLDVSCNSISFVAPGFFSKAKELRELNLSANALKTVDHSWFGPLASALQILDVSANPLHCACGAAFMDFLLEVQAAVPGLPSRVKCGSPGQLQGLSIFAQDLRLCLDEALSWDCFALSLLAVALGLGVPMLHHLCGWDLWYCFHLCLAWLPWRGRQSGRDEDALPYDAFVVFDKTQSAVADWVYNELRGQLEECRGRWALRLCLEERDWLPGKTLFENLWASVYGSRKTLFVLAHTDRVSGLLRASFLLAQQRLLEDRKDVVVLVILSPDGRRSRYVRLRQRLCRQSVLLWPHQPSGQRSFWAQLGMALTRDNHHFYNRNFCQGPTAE

[1] = Human microsome stability assay; assay type: in vitro ADME; details: human liver microsomes, 1 µM test compound, 0.5 mg/mL protein, 37°C, up to 30 minutes
Procedure: Human microsome stability assay
The human microsomal stability assay is used for early assessment of metabolic stability of a test compound in human liver microsomes.
Human liver microsomes (Cat.NO.: 452117, Corning, USA;Cat.NO.:H2610, Xenotech, USA) were preincubated with test compound for 10 minutes at 37°C in 100 mM potassium phosphate buffer, pH 7.4. The reactions were initiated by adding NADPH regenerating system. The final incubation mixtures contained 1 µM test compound, 0.5 mg/mL liver microsomal protein, 1 mM MgCl2, 1 mM NADP, 1 unit/mL isocitric dehydrogenase and 6 mM isocitric acid in 100 mM potassium phosphate buffer, pH 7.4. After incubation times of 0, 3, 6, 9, 15 and 30 minutes at 37°C, 300 µL of cold acetonitrile (including internal standard) was added to 100 µL incubation mixture to terminate the reaction. Following precipitation and centrifugation, the amount of compound remaining in the samples were determined by LC-MS/MS. Controls of no NADPH regenerating system at zero and 30 minutes were also prepared and analyzed. […] Table 3. Human liver microsome stability of the compounds of present invention

SMILES	IC50 (hTLR7) [nM]	IC50 (hTLR9) [µM]	Clearance of Human microsome [1] [mL/min/kg]
C[C@@H]1CN(c2ccc(C#N)c3ncccc23)C[C@H](CNc2ccccc2)O1 [ER-886601]	15	> 2	–
C[C@@H]1CN(c2ccc(C#N)c3nccnc23)C[C@H](CN2Cc3ccc(N4CC5CCC(C4)N5)cc3C2)O1 [Example 44, 8-[(2S,6R)-2-[[5-(3,8-diazabicyclo[3.2.1]octan-3-yl)isoindolin-2-yl]methyl]-6-methyl-morpholin-4-yl]quinoxaline-5-carbonitrile]	–	–	6.94
Cc1cccc(NC[C@H]2CN(c3ccc(C#N)c4ncccc34)C[C@@H](C)O2)c1 [ER-886602]	185	> 20	–
Cc1cccc(NC[C@H]2CN(c3ccc(C#N)c4ncccc34)C[C@@H](C)O2)n1 [ER-886799]	7	> 2	–
C[C@@H]1CN(c2ccc(C#N)c3ncccc23)C[C@H](CN2Cc3ccc(N4CCNCC4C(=O)O)cc3C2)O1 (stereo partly drawn) [Example 56, 1-[2-[[(2S,6R)-4-(8-cyano-5-quinolyl)-6-methyl-morpholin-2-yl]methyl]isoindolin-5-yl]piperazine-2-carboxylic acid]	–	–	6.51
Cc1nc2cc(NC[C@H]3CN(c4ccc(C#N)c5ncccc45)C[C@@H](C)O3)ccc2n1C [ER-886608]	13	3.37	–
